Active and inactive are the calls of the source.

For the first experiment, the system named is Jurkat. Put plainly: Induction of necroptosis in human Jurkat T cells incubated for 24 hrs in presence of RIPK1 inhibitor Nec-1 by ATP-based cell viability assay. The format is functional.
Settings: not given
For `Oc1ccccc1CNc1ccc(C2CCCCC2)cc1`, the outcome was Active.

For a further experiment, the system named is Jurkat. Put plainly: Induction of necroptosis in human Jurkat T cells incubated for 24 hrs by ATP-based cell viability assay. The format is functional. The conditions noted are these: Homo sapiens, Jurkat, 24 h; read-out: EC50.
By EC50 is commonly meant the concentration at which the effect is half-maximal. In the case of `Cc1cc(NCc2ccccc2O)ccc1-c1ccccc1`, the EC50 is 8.61 µM. Still for that read-out and setting: next, `Oc1ccccc1CNc1ccc(-c2ccccc2F)cc1`: 2.15 µM; `CCCc1ccc(-c2ccc(NCc3ccccc3O)cc2)cc1`: 2.39 µM. Take `Oc1ccccc1CNc1ccc(-c2ccc(F)cc2)cc1`: the EC50 stood at 3.86 µM. As for `CCOc1ccc(-c2ccc(NCc3ccccc3O)cc2)cc1F`, the EC50 turned out to be 2.53 µM.

As for `Oc1ccccc1CNc1ccc(-c2ccccc2)cc1F`, the EC50 was determined as 5.35 µM. For `CC(C)Oc1ccc(-c2ccc(NCc3ccccc3O)cc2)cc1`, the EC50 amounted to 5.94 µM.

As to `Oc1ccccc1CNc1ccc(-c2ccccc2)nc1`, the EC50 came out at 0.84 µM. Turning to `Cc1ccccc1-c1ccc(NCc2ccccc2O)cc1`, the EC50 is 5.22 µM. Regarding `COc1ccc(-c2ccc(NCc3ccccc3O)cc2)cc1`, the EC50 was found to be 0.58 µM. Still for that read-out and setting: next, `CCOc1ccc(-c2ccc(NCc3ccccc3O)cc2)cc1`: 0.52 µM.

Turning to `Oc1ccccc1CNc1ccc(C2CCCCC2)cc1`, the concentration for a half-maximal effect (EC50) came out at 8.8 µM. Consider `Oc1ccccc1CNc1ccc(-c2ccc(Cl)cc2)cc1`, for which the EC50 came out at 2.39 µM. On the same count and under the same terms, the figure for `Oc1ccccc1CNc1ccc(-c2cccc(Cl)c2)cc1` is 6.2 µM; for `Cc1cccc(-c2ccc(NCc3ccccc3O)cc2)c1` it is 9.19 µM; for `Oc1ccccc1CNc1ccc(-c2cccc(F)c2)cc1` it is 2.02 µM. For `Oc1ccccc1CNc1ccc(-c2ccccc2)c(F)c1`, the EC50 worked out at 2.85 µM.

In the case of `Oc1ccccc1CNc1ccc(-c2ccc(F)cc2)nc1`, the EC50 came to 2.59 µM. Still for that read-out and setting: the figure for `Cc1ccc(-c2ccc(NCc3ccccc3O)cc2)cc1` is 3.79 µM. Turning to `COc1ccc(-c2ccc(NCc3ccccc3O)cn2)cc1`, the EC50 came out at 4.76 µM. In the case of `CCSc1ccc(-c2ccc(NCc3ccccc3O)cc2)cc1`, the EC50 stood at 1.98 µM. On to `Oc1ccccc1CNc1ccc(-c2ccccc2)cc1`, for which the EC50 was found to be 1.82 µM.

Regarding `CCSc1ccc(-c2ccc(NCc3ccccc3O)cn2)cc1`, the EC50 was 1.92 µM.

The experiment is the same for the next values; noted with them: jurkat.
Take `CN(Cc1ccccc1O)c1ccc(C2CCCCC2)cc1`: the EC50 entry was “Not Active”. Take `Oc1ccccc1CNc1ccc(-c2ccccc2Cl)cc1`: the EC50 entry is recorded as “Not Active”. For the compound `Oc1ccccc1CNc1ccc(-c2ccc(C(F)(F)F)cc2)cc1`, the EC50 result was “Not Active”. Take `Cc1cccc(CNc2ccc(C3CCCCC3)cc2)c1O`: the EC50 result is given as “Not Active”. The same measure, in the same setting: next, `Oc1ccc(-c2ccc(NCc3ccccc3O)cc2)cc1`: “Not Active”; `Cc1cc(-c2ccccc2)ccc1NCc1ccccc1O`: “Not Active”. Consider `Oc1ccccc1NCc1ccc(C2CCCCC2)cc1`, for which the EC50 entry is reported as “Not Active”. For `Oc1ccccc1CNc1ccc(-c2ccc(-c3ccccc3)cc2)cc1`, the EC50 entry is on record as “Not Active”. As to `Oc1ccccc1Nc1ccc(C2CCCCC2)cc1`, the EC50 entry was “Not Active”. As for `CC(=O)c1ccc(-c2ccc(NCc3ccccc3O)cc2)cc1`, the concentration for a half-maximal effect (EC50) entry is “Not Active”. Turning to `N#Cc1ccccc1-c1ccc(NCc2ccccc2O)cc1`, the EC50 result is reported as “Not Active”. The same measure, in the same setting: next, `CN1CCN(c2ccc(NCc3ccccc3O)cc2)CC1`: “Not Active”; `O=C(Nc1ccc(C2CCCCC2)cc1)c1ccccc1O`: “Not Active”; `COc1cccc(-c2ccc(NCc3ccccc3O)cc2)c1`: “Not Active”. Consider `Oc1ccccc1CCNc1ccc(C2CCCCC2)cc1`, for which the EC50 result is listed as “Not Active”.

Take `Oc1ccccc1CNc1ccc(F)cc1`: the EC50 entry is “Not Active”. Regarding `Cc1ccc(CNc2ccc(C3CCCCC3)cc2)c(O)c1`, the EC50 result was “Not Active”. For `Oc1ccccc1CNc1cc(-c2ccccc2)no1`, the EC50 entry is reported as “Not Active”.

Take `CCOc1ccc(-c2ccc(NCc3ccccc3O)cn2)cc1`: the EC50 entry was “Not Active”. For the compound `COc1ccccc1CNc1ccc(C2CCCCC2)cc1`, the EC50 entry is reported as “Not Active”. With `N#Cc1ccc(-c2ccc(NCc3ccccc3O)cc2)cc1`, the EC50 result is reported as “Not Active”.

With `Oc1ccccc1CNc1ccc(-c2ccccc2)cn1`, the 50% effective concentration (EC50) entry is listed as “Not Active”. On to `CCCOc1ccc(-c2ccc(NCc3ccccc3O)cc2)cc1`, for which the EC50 result is on record as “Not Active”. Take `Cc1ccc(O)c(CNc2ccc(C3CCCCC3)cc2)c1`: the EC50 entry was “Not Active”. Regarding `Oc1ccccc1CNc1ccccc1`, the EC50 result is given as “Not Active”. The same measure, in the same setting: next, `c1ccc(CNc2ccc(C3CCCCC3)cc2)cc1`: “Not Active”. Still for that read-out and setting: the entry for `COc1ccccc1-c1ccc(NCc2ccccc2O)cc1` is “Not Active”; for `CCOc1cccc(-c2ccc(NCc3ccccc3O)cc2)c1` it is “Not Active”; for `COc1ccc(CNc2ccc(C3CCCCC3)cc2)c(O)c1` it is “Not Active”.

`Oc1ccccc1/C=N/c1ccc(C2CCCCC2)cc1`: the EC50 result is recorded as “Not Active”. As to `Oc1ccccc1CNc1ccc(-c2cccc(OC(F)(F)F)c2)cc1`, the EC50 entry was “Not Active”. The same measure, in the same setting: next, `CC(C)(C)c1ccc(-c2ccc(NCc3ccccc3O)cc2)cc1`: “Not Active”; `Oc1ccccc1CNc1ccc(N2CCCC2)cc1`: “Not Active”. For the compound `Oc1ccccc1CNc1ccc(-c2ccc(OC(F)(F)F)cc2)cc1`, the EC50 result is “Not Active”. Take `Oc1cc(-c2ccccc2)ccc1CNc1ccc(C2CCCCC2)cc1`: the half-maximal effective concentration (EC50) result is “Not Active”. Regarding `Oc1ccccc1CNc1ccc(-c2ccc(Cl)cc2)nc1`, the half-maximal effective concentration (EC50) entry was “Not Active”. Take `Oc1ccccc1CNc1ccc(-c2ccc(N3CCOCC3)cc2)nc1`: the EC50 entry was “Not Active”. The same measure, in the same setting: next, `Oc1cc(C(F)(F)F)ccc1CNc1ccc(C2CCCCC2)cc1`: “Not Active”; `Oc1ccccc1CNc1ccc(N2CCNCC2)cc1`: “Not Active”.

Regarding `Oc1ccccc1CNc1ccc(-c2cccc(OCc3ccccc3)c2)cc1`, the EC50 result is on record as “Not Active”. Turning to `Oc1cc(I)ccc1CNc1ccc(C2CCCCC2)cc1`, the EC50 entry was “Not Active”. In the case of `Oc1ccccc1CNc1nc(-c2ccccc2)cs1`, the EC50 entry is given as “Not Active”. The same measure, in the same setting: next, `Oc1ccc(CNc2ccc(C3CCCCC3)cc2)cc1`: “Not Active”; `Oc1cc(F)ccc1CNc1ccc(C2CCCCC2)cc1`: “Not Active”.

`Oc1ccccc1CCc1ccc(C2CCCCC2)cc1`: the EC50 entry is given as “Not Active”.

`Oc1ccccc1CNc1ccc(N2CCCCC2)cc1`: the EC50 entry is reported as “Not Active”. Regarding `O=[N+]([O-])c1ccc(NCc2ccccc2O)cc1`, the concentration for a half-maximal effect (EC50) result was “Not Active”. `COC(=O)c1ccc(-c2ccc(NCc3ccccc3O)cc2)cc1`: the EC50 result is reported as “Not Active”. For the compound `CC(Nc1ccc(C2CCCCC2)cc1)c1ccccc1O` (stereo not given), the EC50 entry is listed as “Not Active”. Take `Cc1ccc(-c2ccc(NCc3ccccc3O)cn2)cc1`: the EC50 entry is reported as “Not Active”.

On to `Oc1cccc(-c2ccc(NCc3ccccc3O)cc2)c1`, for which the concentration for a half-maximal effect (EC50) entry is “Not Active”.

The test system of a further experiment is Jurkat (Homo sapiens). In words: Potency index, ratio of EC50 for E6 to EC50 for test compound for induction of necroptosis in human Jurkat T cells incubated for 24 hrs by ATP-based cell viability assay.
Settings: not given
Take `COc1ccc(-c2ccc(NCc3ccccc3O)cc2)cc1`: the “Ratio EC50” value is 17. `CCOc1ccc(-c2ccc(NCc3ccccc3O)cc2)cc1`: the “Ratio EC50” value is reported as 17.

In the case of `Oc1ccccc1CNc1ccc(-c2ccccc2)cc1`, the “Ratio EC50” value is given as 5.

The next experiment concerns Jurkat. In words: Induction of necroptosis in human Jurkat T cells incubated for 24 hrs in presence of Nec-8 by ATP-based cell viability assay. Type of experiment: functional.
Settings: not given
`Oc1ccccc1CNc1ccc(C2CCCCC2)cc1`: the result was inactive.

In the next experiment the test system is Jurkat. In words: Induction of necroptosis in human Jurkat T cells incubated for 24 hrs in presence of caspase inhibitor zVAD.fmk by ATP-based cell viability assay. Type of experiment: functional.
Settings: not given
Regarding `Oc1ccccc1CNc1ccc(C2CCCCC2)cc1`, the result was Active.

Values taken from ChEMBL document CHEMBL3596106, “Structure-activity relationship study of E6 as a novel necroptosis inducer” (Bioorg Med Chem Lett, 2015).
